Numbers after ± are expanded uncertainties.
Test: refractive index (Na D-line) (dimensionless); xn = mol fraction of the nth substance listed
Settings: 100 kPa, Liquid, minimum deviations angle

Brc1ccccc1 [bromobenzene] + CCCCCC[n+]1ccn(C)c1.O=S(=O)([N-]S(=O)(=O)C(F)(F)F)C(F)(F)F
Settings	refractive index
282.96 K, x2 = 0.126	1.5213 ± 0.0006
282.97 K, x2 = 0.014	1.5558 ± 0.0013
282.97 K, x2 = 0.099	1.5287 ± 0.0013
283 K, x2 = 0	1.5612 ± 0.0003
283 K, x2 = 0.012	1.5566 ± 0.0008
283.05 K, x2 = 0.203	1.5043 ± 0.0005
284.39 K, x2 = 0.098	1.5279 ± 0.0007
284.4 K, x2 = 0	1.5605 ± 0.0003
284.53 K, x2 = 0.016	1.5545 ± 0.0013
284.53 K, x2 = 0.094	1.5291 ± 0.0013
284.67 K, x2 = 0.012	1.5558 ± 0.0007
284.89 K, x2 = 0.126	1.5204 ± 0.0006
285.06 K, x2 = 0.203	1.5035 ± 0.0005
285.53 K, x2 = 0.098	1.5273 ± 0.0007
285.73 K, x2 = 0.017	1.5534 ± 0.0013
285.73 K, x2 = 0.091	1.5294 ± 0.0013
285.75 K, x2 = 0	1.5598 ± 0.0003
286.57 K, x2 = 0.012	1.5548 ± 0.0007
286.96 K, x2 = 0	1.5591 ± 0.0003
286.98 K, x2 = 0.126	1.5195 ± 0.0006
287.01 K, x2 = 0.203	1.5027 ± 0.0005
287.53 K, x2 = 0.019	1.5516 ± 0.0013
287.53 K, x2 = 0.086	1.53 ± 0.0013
287.59 K, x2 = 0.098	1.5264 ± 0.0007
287.98 K, x2 = 0	1.5585 ± 0.0003
288.27 K, x2 = 0.012	1.5539 ± 0.0007
288.42 K, x2 = 0.021	1.5506 ± 0.0013
288.42 K, x2 = 0.083	1.5304 ± 0.0013
288.67 K, x2 = 0.085	1.5295 ± 0.0007
288.99 K, x2 = 0	1.558 ± 0.0003
289.12 K, x2 = 0.126	1.5186 ± 0.0006
289.13 K, x2 = 0.022	1.5497 ± 0.0013
289.13 K, x2 = 0.08	1.5307 ± 0.0013
289.18 K, x2 = 0.203	1.5018 ± 0.0005
289.79 K, x2 = 0.085	1.529 ± 0.0006
289.81 K, x2 = 0.098	1.5254 ± 0.0006
289.82 K, x2 = 0.024	1.5487 ± 0.0014
289.82 K, x2 = 0.077	1.5313 ± 0.0013
290.11 K, x2 = 0	1.5574 ± 0.0003
290.23 K, x2 = 0.012	1.5529 ± 0.0008
290.33 K, x2 = 0.026	1.5478 ± 0.0013
290.33 K, x2 = 0.074	1.5318 ± 0.0014
290.81 K, x2 = 0.085	1.5286 ± 0.0006
290.82 K, x2 = 0.027	1.547 ± 0.0013
290.82 K, x2 = 0.072	1.5324 ± 0.0013
290.87 K, x2 = 0.026	1.5473 ± 0.0007
291.09 K, x2 = 0.203	1.501 ± 0.0005
291.14 K, x2 = 0.126	1.5177 ± 0.0005
291.16 K, x2 = 0.029	1.5462 ± 0.0013
291.16 K, x2 = 0.069	1.533 ± 0.0013
291.22 K, x2 = 0	1.5568 ± 0.0003
291.34 K, x2 = 0.012	1.5524 ± 0.0007
291.44 K, x2 = 0.03	1.5456 ± 0.0014
291.44 K, x2 = 0.067	1.5336 ± 0.0013
291.49 K, x2 = 0.075	1.5311 ± 0.0007
291.54 K, x2 = 0.031	1.5453 ± 0.0014
291.54 K, x2 = 0.066	1.5338 ± 0.0013
291.64 K, x2 = 0.031	1.5451 ± 0.0013
291.64 K, x2 = 0.065	1.5341 ± 0.0013
291.71 K, x2 = 0.098	1.5245 ± 0.0007
291.74 K, x2 = 0.032	1.5448 ± 0.0016
291.74 K, x2 = 0.064	1.5343 ± 0.0013
291.83 K, x2 = 0.033	1.5445 ± 0.0011
291.83 K, x2 = 0.063	1.5346 ± 0.0006
291.91 K, x2 = 0.033	1.5442 ± 0.0007
291.91 K, x2 = 0.062	1.5349 ± 0.0013
291.98 K, x2 = 0.034	1.5439 ± 0.002
291.98 K, x2 = 0.061	1.5351 ± 0.0015
292.03 K, x2 = 0.026	1.5467 ± 0.0007
292.04 K, x2 = 0.035	1.5436 ± 0.0024
292.04 K, x2 = 0.06	1.5354 ± 0.0015
292.08 K, x2 = 0.036	1.5433 ± 0.0012
292.08 K, x2 = 0.059	1.5356 ± 0.0009
292.14 K, x2 = 0.085	1.5279 ± 0.0006
292.15 K, x2 = 0.037	1.5428 ± 0.0011
292.15 K, x2 = 0.058	1.536 ± 0.0009
292.21 K, x2 = 0.038	1.5424 ± 0.0012
292.21 K, x2 = 0.056	1.5365 ± 0.0018
292.21 K, x2 = 0.075	1.5307 ± 0.0006
292.21 K, x2 = 0.126	1.5172 ± 0.0005
292.22 K, x2 = 0.203	1.5005 ± 0.0005
292.24 K, x2 = 0.039	1.5421 ± 0.0014
292.24 K, x2 = 0.055	1.5368 ± 0.0013
292.25 K, x2 = 0.039	1.5419 ± 0.001
292.25 K, x2 = 0.055	1.5369 ± 0.0011
292.26 K, x2 = 0.04	1.5416 ± 0.0013
292.26 K, x2 = 0.054	1.5371 ± 0.0014
292.27 K, x2 = 0.041	1.5414 ± 0.0014
292.27 K, x2 = 0.053	1.5373 ± 0.0013
292.29 K, x2 = 0.042	1.541 ± 0.0014
292.29 K, x2 = 0.052	1.5378 ± 0.0013
292.3 K, x2 = 0.012	1.5518 ± 0.0008
292.3 K, x2 = 0.043	1.5407 ± 0.0013
292.3 K, x2 = 0.051	1.538 ± 0.0013
292.32 K, x2 = 0	1.5563 ± 0.0003
293.01 K, x2 = 0.085	1.5276 ± 0.0007
293.1 K, x2 = 0.026	1.5461 ± 0.0007
293.22 K, x2 = 0.126	1.5167 ± 0.0005
293.22 K, x2 = 0.203	1.5001 ± 0.0005
293.32 K, x2 = 0	1.5557 ± 0.0003
293.35 K, x2 = 0.041	1.5407 ± 0.0008
293.35 K, x2 = 0.06	1.5348 ± 0.0006
293.39 K, x2 = 0.012	1.5513 ± 0.0008
293.5 K, x2 = 0.075	1.5301 ± 0.0006
293.74 K, x2 = 0.098	1.5236 ± 0.0007
293.93 K, x2 = 0.085	1.5271 ± 0.0007
294.22 K, x2 = 0.026	1.5456 ± 0.0007
294.45 K, x2 = 0.041	1.5401 ± 0.0007
294.49 K, x2 = 0.06	1.5343 ± 0.0007
294.54 K, x2 = 0.075	1.5296 ± 0.0007
295.1 K, x2 = 0.085	1.5266 ± 0.0006
295.1 K, x2 = 0.098	1.523 ± 0.0006
295.32 K, x2 = 0.026	1.545 ± 0.0008
295.66 K, x2 = 0.06	1.5337 ± 0.0007
295.82 K, x2 = 0.041	1.5394 ± 0.0007
295.84 K, x2 = 0.075	1.529 ± 0.0007
296.86 K, x2 = 0.06	1.5331 ± 0.0013
297.11 K, x2 = 0.041	1.5388 ± 0.0007
297.16 K, x2 = 0.075	1.5284 ± 0.0007
297.94 K, x2 = 0.06	1.5325 ± 0.0007
298.49 K, x2 = 0.041	1.5381 ± 0.0008
298.64 K, x2 = 0.026	1.5433 ± 0.0007
298.7 K, x2 = 0.075	1.5277 ± 0.0007
299.03 K, x2 = 0.06	1.532 ± 0.0007
299.63 K, x2 = 0.041	1.5375 ± 0.0007
299.98 K, x2 = 0.06	1.5315 ± 0.0007
300.84 K, x2 = 0.041	1.5369 ± 0.0008
